These are literature values, as cited in article PMC140124 (Biological Procedures Online, 1998).

Read-outs that look alike come from different tables or passages of the source.

`O=S1(=O)OC(c2ccc(O)cc2)(c2ccc(O)cc2)c2ccccc21` [phenol red]: the “change of absorption clearance” value (presence of peptidase inhibitors, ref [1]) is reported as “did not increase”. With L-tyrosyl-D-arginine [D-KTP], the “absorption clearance (the overall transport clearance)” value (rat everted jejunum, peptidase-resistant isomer, ref [2]) is 0.516 µL/min/cm. Turning to L-tyrosyl-L-arginine [KTP], the “appearance on the serosal side” value (absence of peptidase inhibitors, ref [2]) is recorded as “did not appear on the serosal side”; the “appearance on the serosal side” value (presence of peptidase inhibitors such as o-phenanthrolin, tryptophan hydroxamate and bestatin, ref [2]) is reported as “appeared on the serosal side”.
